Patent publication US12268674B2, “Mi-2β inhibitor as an immunotherapy agent” (BioVentures, LLC, priority 2021, dated 2025)

What was measured:
Assay in all cases: ATPase profile (ATP acyl phosphate probe)
Format in all cases: binding
PMS2 = target: T1, PMS2 (Homo sapiens, UniProt P54278); conditions: PMS2, SEQ ID NO: 162, ATP BS
T1 construct: to get the native cell lysate; endogenous in cells; host or cells: A375 cell lysate

KIAA0564 = target: T2, KIAA0564 (Homo sapiens, UniProt A3KMH1); conditions: KIAA0564, SEQ ID NO: 113, ATP BS
T2 construct: to get the native cell lysate; endogenous in cells; host or cells: A375

TOR1A = target: T3, TOR1A (Homo sapiens, UniProt O14656); conditions: SEQ ID NO: 203, ATP BS
T3 construct: to get the native cell lysate; endogenous in cells; host or cells: A375 cell lysate

RFK = target: T4, RFK (Homo sapiens, UniProt Q969G6); conditions: SEQ ID NO: 187, ATP BS
T4 construct: to get the native cell lysate; endogenous in cells; host or cells: A375 cell lysate

PFKFB2 = target: T5, PFKFB2 (Homo sapiens, UniProt O60825); conditions: PFKFB2, SEQ ID NO: 158, ATP BS
T5 construct: to get the native cell lysate; endogenous in cells; host or cells: A375 cell lysate

PSMC1 = target: T6, PSMC1 (Homo sapiens, UniProt P62191); conditions: PSMC1, SEQ ID NO: 173, ATP BS
T6 construct: endogenous in cells; host or cells: A375 cell lysate

DHX36 = target: T7, DHX36 (Homo sapiens, UniProt Q9H2U1); conditions: DHX36, SEQ ID NO: 73, ATP BS
T7 construct: endogenous in cells; host or cells: A375 cell lysate

PC = target: T8, PC (Homo sapiens, UniProt P11498); conditions: SEQ ID NO: 152, ATP BS
T8 construct: to get the native cell lysate; endogenous in cells; host or cells: A375

ABCB6 = target: T9, ABCB6 (Homo sapiens, UniProt Q9NP58); conditions: ABCB6, SEQ ID NO: 3, ATP BS
T9 construct: to get the native cell lysate; host or cells: A375 cell lysate

NOP2 = target: T10, NOP2 (Homo sapiens, UniProt P46087); conditions: NOP2, SEQ ID NO: 136, ATP BS
T10 construct: to get the native cell lysate; endogenous in cells; host or cells: A375

RUVBL2 = target: T11, RUVBL2 (Homo sapiens, UniProt Q9Y230); conditions: RUVBL2, SEQ ID NO: 189, ATP BS
T11 construct: to get the native cell lysate; endogenous in cells; host or cells: A375 cell lysate

TRAP1 = target: T12, TRAP1 (Homo sapiens, UniProt Q12931)
T12 construct: to get the native cell lysate; endogenous in cells; host or cells: A375 cell lysate

PRPS1 = target: T13, PRPS1 (Homo sapiens, UniProt P60891); conditions: PRPS1, SEQ ID NO: 171, ATP BS
T13 construct: endogenous in cells; host or cells: A375 cell lysate

PRKAG1 = PRKAG1 (Homo sapiens, UniProt P54619)
HSPA5 = target: T14, HSPA5 (Homo sapiens, UniProt P11021)
T14 construct: to get the native cell lysate; endogenous in cells; host or cells: A375

LIG1 = target: T15, LIG1 (Homo sapiens, UniProt P18858); conditions: LIG1, SEQ ID NO: 114, ATP BS
T15 construct: to get the native cell lysate; endogenous in cells; host or cells: A375

PFKM = target: T16, PFKM (Homo sapiens, UniProt P08237); conditions: SEQ ID NO: 159, ATP BS
T16 construct: to get the native cell lysate; endogenous in cells; host or cells: A375 cell lysate

CPS1 = target: T17, CPS1 (Homo sapiens, UniProt P31327); conditions: CPS1, SEQ ID NO: 64, labeling site Other
T17 construct: endogenous in cells; host or cells: A375 cell lysate

PKM, PKM2 = target: T18, PKM, PKM2 (Homo sapiens, UniProt P14618); conditions: PKM2, SEQ ID NO: 161, ATP BS
T18 construct: to get the native cell lysate; endogenous in cells; host or cells: A375 cell lysate

MDN1 = target: T19, MDN1 (Homo sapiens, UniProt Q9NU22); conditions: MDN1, SEQ ID NO: 121, ATP BS
T19 construct: to get the native cell lysate; endogenous in cells; host or cells: A375

ALDH16A1 = target: T20, ALDH16A1 (Homo sapiens, UniProt Q8IZ83); conditions: ALDH16A1, SEQ ID NO: 38, ATP BS
T20 construct: to get the native cell lysate; host or cells: A375 cell lysate

ABCF3 = target: T21, ABCF3 (Homo sapiens, UniProt Q9NUQ8); conditions: ABCF3, SEQ ID NO: 19, ATP BS
T21 construct: to get the native cell lysate; host or cells: A375 cell lysate

HDDC3 = target: T22, HDDC3 (Homo sapiens, UniProt Q8N4P3)
T22 construct: to get the native cell lysate; endogenous in cells; host or cells: A375

SPG7 = target: T23, SPG7 (Homo sapiens, UniProt Q9UQ90); conditions: SPG7, SEQ ID NO: 197, ATP BS
T23 construct: to get the native cell lysate; endogenous in cells; host or cells: A375 cell lysate

UBA6 = target: T24, UBA6 (Homo sapiens, UniProt A0AVT1); conditions: UBA6, SEQ ID NO: 222, ATP BS
T24 construct: to get the native cell lysate; endogenous in cells; host or cells: A375 cell lysate

NARS = target: T25, NARS (Homo sapiens, UniProt O43776); conditions: SEQ ID NO: 131, ATP BS
T25 construct: to get the native cell lysate; endogenous in cells; host or cells: A375

UBA3 = target: T26, UBA3 (Homo sapiens, UniProt Q8TBC4); conditions: UBA3, SEQ ID NO: 220, ATP BS
T26 construct: to get the native cell lysate; endogenous in cells; host or cells: A375 cell lysate

FDPS = target: T27, FDPS (Homo sapiens, UniProt P14324); conditions: SEQ ID NO: 78, ATP BS
T27 construct: endogenous in cells; host or cells: A375 cell lysate

GMPS = target: T28, GMPS (Homo sapiens, UniProt P49915)
T28 construct: endogenous in cells; host or cells: A375 cell lysate

PRPS1L1, PRPS2 = conditions: PRPS1L1, PRPS2, SEQ ID NO: 172, ATP BS

T14 sequence (P11021 19-654): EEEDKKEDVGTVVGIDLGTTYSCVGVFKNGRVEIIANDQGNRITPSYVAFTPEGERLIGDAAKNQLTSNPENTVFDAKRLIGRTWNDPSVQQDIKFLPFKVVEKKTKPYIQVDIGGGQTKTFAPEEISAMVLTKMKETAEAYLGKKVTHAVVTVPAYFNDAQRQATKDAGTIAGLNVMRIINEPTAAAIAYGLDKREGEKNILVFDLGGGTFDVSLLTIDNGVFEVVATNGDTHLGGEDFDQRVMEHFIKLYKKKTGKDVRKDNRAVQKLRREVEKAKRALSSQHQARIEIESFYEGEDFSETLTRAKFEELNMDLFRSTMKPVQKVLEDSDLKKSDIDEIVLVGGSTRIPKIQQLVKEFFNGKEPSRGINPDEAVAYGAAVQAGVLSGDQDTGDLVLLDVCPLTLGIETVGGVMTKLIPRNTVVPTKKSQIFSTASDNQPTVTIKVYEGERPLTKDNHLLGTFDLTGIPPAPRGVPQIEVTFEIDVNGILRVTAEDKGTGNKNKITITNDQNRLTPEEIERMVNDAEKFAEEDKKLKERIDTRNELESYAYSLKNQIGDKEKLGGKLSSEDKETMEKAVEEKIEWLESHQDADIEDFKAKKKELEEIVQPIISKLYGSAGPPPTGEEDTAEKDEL
T12 sequence (Q12931 60-704): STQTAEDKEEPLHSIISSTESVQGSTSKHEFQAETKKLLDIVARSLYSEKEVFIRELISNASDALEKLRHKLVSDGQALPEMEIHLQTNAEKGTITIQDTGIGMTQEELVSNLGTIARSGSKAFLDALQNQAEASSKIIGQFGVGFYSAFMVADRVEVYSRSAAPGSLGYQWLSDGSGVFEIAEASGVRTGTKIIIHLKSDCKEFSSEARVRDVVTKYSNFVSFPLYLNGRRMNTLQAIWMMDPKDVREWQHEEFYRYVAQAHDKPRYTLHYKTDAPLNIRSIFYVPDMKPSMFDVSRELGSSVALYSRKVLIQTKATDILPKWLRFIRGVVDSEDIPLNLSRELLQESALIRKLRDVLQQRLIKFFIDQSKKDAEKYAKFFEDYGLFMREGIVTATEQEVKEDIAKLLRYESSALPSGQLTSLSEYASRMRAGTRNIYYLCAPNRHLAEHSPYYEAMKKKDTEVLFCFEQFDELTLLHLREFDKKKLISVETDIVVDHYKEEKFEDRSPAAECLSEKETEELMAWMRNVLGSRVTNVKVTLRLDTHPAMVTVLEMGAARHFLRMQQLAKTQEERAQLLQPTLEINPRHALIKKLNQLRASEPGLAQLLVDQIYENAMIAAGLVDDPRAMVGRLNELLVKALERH
PRKAG1, sequence (P54619 whole entry): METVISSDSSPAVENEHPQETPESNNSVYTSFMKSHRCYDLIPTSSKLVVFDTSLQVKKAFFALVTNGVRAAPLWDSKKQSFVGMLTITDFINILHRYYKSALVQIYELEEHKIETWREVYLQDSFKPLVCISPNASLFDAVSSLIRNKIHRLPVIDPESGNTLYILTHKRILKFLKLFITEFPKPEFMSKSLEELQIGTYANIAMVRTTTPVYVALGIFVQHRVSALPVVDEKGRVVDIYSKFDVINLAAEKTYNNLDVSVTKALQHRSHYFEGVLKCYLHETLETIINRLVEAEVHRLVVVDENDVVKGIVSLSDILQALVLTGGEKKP
PRKAG1, sequence (Q13131 whole entry partner): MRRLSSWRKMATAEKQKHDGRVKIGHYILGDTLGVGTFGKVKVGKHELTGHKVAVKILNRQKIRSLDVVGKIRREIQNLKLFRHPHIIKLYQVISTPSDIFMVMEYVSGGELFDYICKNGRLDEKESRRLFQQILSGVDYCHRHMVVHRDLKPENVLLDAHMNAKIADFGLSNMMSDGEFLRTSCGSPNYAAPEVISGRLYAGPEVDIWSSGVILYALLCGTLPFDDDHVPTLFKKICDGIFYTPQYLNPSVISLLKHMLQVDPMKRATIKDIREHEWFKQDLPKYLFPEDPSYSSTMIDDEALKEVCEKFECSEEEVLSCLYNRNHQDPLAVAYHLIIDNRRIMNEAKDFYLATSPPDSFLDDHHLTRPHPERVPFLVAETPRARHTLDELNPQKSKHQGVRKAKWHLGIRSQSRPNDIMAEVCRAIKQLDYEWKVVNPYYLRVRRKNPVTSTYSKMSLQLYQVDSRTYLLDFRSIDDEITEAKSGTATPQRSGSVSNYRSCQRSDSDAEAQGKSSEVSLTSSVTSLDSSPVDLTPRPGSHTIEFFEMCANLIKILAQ
PRKAG1, sequence (Q9Y478 whole entry partner): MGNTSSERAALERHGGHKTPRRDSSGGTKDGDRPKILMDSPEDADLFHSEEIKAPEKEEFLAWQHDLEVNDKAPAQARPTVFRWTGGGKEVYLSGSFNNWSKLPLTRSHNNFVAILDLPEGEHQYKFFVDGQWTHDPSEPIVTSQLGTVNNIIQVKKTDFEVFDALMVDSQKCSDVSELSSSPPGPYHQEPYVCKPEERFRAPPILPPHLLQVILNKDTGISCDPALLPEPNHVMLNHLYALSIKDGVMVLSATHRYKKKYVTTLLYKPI
T22 sequence (Q8N4P3 whole entry): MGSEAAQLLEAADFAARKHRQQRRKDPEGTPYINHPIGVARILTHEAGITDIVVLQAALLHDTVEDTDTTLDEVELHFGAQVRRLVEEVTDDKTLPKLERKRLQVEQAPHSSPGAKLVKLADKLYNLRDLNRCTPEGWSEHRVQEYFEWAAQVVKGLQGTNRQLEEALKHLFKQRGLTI
T28 sequence (P49915 whole entry): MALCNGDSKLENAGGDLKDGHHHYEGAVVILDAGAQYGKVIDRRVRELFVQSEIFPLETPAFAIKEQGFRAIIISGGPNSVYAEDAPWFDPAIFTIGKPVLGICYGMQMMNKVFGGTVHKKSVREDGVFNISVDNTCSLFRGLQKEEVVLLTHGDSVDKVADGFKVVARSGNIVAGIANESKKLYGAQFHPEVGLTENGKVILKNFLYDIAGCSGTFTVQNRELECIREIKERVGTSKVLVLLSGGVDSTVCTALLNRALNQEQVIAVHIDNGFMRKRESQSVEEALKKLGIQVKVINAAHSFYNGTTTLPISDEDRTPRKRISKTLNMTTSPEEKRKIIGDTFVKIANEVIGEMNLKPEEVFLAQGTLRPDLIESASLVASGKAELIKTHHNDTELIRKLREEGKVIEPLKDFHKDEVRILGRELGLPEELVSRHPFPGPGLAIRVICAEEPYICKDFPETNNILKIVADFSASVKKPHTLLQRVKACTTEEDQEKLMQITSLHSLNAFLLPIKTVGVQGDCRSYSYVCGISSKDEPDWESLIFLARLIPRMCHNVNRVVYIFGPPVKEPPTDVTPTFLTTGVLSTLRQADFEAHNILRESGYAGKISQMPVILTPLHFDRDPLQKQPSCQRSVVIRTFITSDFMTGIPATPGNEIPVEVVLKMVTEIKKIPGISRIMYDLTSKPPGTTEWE
T21 sequence (Q9NUQ8 whole entry): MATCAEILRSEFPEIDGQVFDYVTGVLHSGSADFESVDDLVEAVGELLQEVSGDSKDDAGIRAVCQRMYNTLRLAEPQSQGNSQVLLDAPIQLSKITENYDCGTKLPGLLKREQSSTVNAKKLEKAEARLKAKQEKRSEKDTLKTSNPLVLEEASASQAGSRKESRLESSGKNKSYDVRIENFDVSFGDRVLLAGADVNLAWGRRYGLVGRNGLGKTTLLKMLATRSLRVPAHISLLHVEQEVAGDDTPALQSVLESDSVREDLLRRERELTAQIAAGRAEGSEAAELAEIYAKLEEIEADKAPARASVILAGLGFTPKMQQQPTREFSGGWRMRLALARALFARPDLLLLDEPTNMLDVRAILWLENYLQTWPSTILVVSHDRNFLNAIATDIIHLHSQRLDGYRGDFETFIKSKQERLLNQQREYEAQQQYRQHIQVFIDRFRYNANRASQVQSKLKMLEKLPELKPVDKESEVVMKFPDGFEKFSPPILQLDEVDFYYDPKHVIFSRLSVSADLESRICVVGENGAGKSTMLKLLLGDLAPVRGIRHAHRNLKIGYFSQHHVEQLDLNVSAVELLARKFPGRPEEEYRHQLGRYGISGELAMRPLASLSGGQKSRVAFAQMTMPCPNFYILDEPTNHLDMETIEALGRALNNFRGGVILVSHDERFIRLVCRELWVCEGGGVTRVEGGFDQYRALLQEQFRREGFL
T25 sequence (O43776 whole entry): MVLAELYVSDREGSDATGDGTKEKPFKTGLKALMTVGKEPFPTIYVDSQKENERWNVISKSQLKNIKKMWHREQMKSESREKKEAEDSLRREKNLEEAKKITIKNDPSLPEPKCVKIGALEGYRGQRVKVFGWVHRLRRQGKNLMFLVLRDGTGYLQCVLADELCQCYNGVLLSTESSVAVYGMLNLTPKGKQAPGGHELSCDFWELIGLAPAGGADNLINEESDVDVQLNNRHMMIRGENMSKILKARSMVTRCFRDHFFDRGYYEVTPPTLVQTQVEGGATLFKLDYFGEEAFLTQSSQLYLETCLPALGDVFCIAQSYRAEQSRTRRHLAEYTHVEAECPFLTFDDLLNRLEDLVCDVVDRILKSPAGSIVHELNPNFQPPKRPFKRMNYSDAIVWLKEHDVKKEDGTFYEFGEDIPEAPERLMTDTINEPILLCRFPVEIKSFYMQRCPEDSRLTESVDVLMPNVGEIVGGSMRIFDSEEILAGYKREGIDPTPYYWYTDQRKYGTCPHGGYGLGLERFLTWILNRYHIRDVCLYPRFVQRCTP
T13 sequence (P60891 2-318 limits assumed): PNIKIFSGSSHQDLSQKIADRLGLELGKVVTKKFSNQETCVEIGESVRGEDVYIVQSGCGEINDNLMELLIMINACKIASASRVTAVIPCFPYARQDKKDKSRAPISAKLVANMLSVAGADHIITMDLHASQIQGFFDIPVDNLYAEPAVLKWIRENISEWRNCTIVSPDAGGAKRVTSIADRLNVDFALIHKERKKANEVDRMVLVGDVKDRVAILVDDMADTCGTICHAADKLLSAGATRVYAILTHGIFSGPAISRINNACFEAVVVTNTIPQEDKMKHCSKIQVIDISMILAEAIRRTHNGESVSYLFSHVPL

Cn1c(=O)[nH]c2ccc(-c3cccc(C(=O)NC4CCn5ccnc5C4)c3)cc21 (centres unmarked) [Z36-MP5, 3-(3-methyl-2-oxo-2,3-dihydro-1H-benzo[d]imidazol-5-yl)-N-(5,6,7,8-tetrahydroimidazo[1,2-a]pyridin-7-yl)benzamide]
Inhibition (%) by 1 μM Z36-MP5 (PMS2): 3.36%
Inhibition (%) by 1 μM Z36-MP5 (KIAA0564): 11.07%
Inhibition (%) by 1 μM Z36-MP5 (TOR1A): 4.27%
Inhibition (%) by 1 μM Z36-MP5 (RFK): 10.06%
Inhibition (%) by 1 μM Z36-MP5 (PFKFB2): 14.74%
Inhibition (%) by 1 μM Z36-MP5 (PSMC1): −7.42%
Inhibition (%) by 1 μM Z36-MP5 (DHX36): −20.12%
Inhibition (%) by 1 μM Z36-MP5 (PC): −15.19%
Inhibition (%) by 1 μM Z36-MP5 (ABCB6): 8.49%
Inhibition (%) by 1 μM Z36-MP5 (NOP2): 1.98%
Inhibition (%) by 1 μM Z36-MP5 (RUVBL2): −0.97%
Inhibition (%) by 1 μM Z36-MP5 (TRAP1; TRAP1, SEQ ID NO: 209, ATP BS): −10.78%
Inhibition (%) by 1 μM Z36-MP5 (TRAP1; TRAP1, SEQ ID NO: 210, ATP BS): −11.57%
Inhibition (%) by 1 μM Z36-MP5 (PRPS1): −22.26%
Inhibition (%) by 1 μM Z36-MP5 (PRKAG1; PRKAG1, SEQ ID NO: 167, ATP BS): −11.56%
Inhibition (%) by 1 μM Z36-MP5 (PRKAG1; PRKAG1, SEQ ID NO: 168, ATP BS): −7.08%
Inhibition (%) by 1 μM Z36-MP5 (HSPA5; HSPA5, SEQ ID NO: 104, ATP BS): −16.08%
Inhibition (%) by 1 μM Z36-MP5 (HSPA5; HSPA5, SEQ ID NO: 105, ATP BS): −7.84%
Inhibition (%) by 1 μM Z36-MP5 (LIG1): −7.76%
Inhibition (%) by 1 μM Z36-MP5 (PFKM): −8.93%
Inhibition (%) by 1 μM Z36-MP5 (CPS1): 1.16%
Inhibition (%) by 1 μM Z36-MP5 (PKM, PKM2): 28.24%
Inhibition (%) by 1 μM Z36-MP5 (MDN1): 3.28%
Inhibition (%) by 1 μM Z36-MP5 (ALDH16A1): −1.13%
Inhibition (%) by 1 μM Z36-MP5 (ABCF3): 5.45%
Inhibition (%) by 1 μM Z36-MP5 (HDDC3; HDDC3, SEQ ID NO: 90, ATP BS): 1.23%
Inhibition (%) by 1 μM Z36-MP5 (HDDC3; HDDC3, SEQ ID NO: 91, ATP BS): 17.25%
Inhibition (%) by 1 μM Z36-MP5 (SPG7): 0.12%
Inhibition (%) by 1 μM Z36-MP5 (UBA6): 3.60%
Inhibition (%) by 1 μM Z36-MP5 (NARS): 2.36%
Inhibition (%) by 1 μM Z36-MP5 (UBA3): −11.62%
Inhibition (%) by 1 μM Z36-MP5 (FDPS): 29.13%
Inhibition (%) by 1 μM Z36-MP5 (GMPS; SEQ ID NO: 85, labeling site Other): −13.99%
Inhibition (%) by 1 μM Z36-MP5 (GMPS; SEQ ID NO: 86, labeling site Other): 14.54%
Inhibition (%) by 1 μM Z36-MP5 (PRPS1L1, PRPS2): −13.63%
